Experimental findings from ChEMBL document CHEMBL1949647, “Design, synthesis and biological evaluation of peptidyl-vinylaminophosphonates as novel cysteine protease inhibitors” (Bioorg Med Chem, 2011) are described below.

The target in test [1] is T1, Papain (Carica papaya, UniProt P00784).
T1 sequence (P00784 whole entry): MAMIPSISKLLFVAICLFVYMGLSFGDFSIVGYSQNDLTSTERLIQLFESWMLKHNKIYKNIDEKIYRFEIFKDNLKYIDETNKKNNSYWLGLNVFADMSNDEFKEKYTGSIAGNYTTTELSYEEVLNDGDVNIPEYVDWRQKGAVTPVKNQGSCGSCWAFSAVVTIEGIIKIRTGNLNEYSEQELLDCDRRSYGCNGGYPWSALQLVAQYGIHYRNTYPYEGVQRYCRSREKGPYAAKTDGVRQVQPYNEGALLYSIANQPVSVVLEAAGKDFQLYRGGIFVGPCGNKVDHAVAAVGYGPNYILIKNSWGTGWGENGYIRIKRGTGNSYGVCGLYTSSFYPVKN
Briefly: Inhibition of papaya papain using BAPNA as substrate assessed as p-nitroaniline release by spectrophotometric analysis.

Test [2] concerns the target T1, Papain. Nature of the test: Inhibition of papaya papain.
The target of the next test is Cathepsin B (Homo sapiens, UniProt P07858). Nature of the test: Inhibition of cathepsin B.
Test [3] addresses T1, Papain. Briefly: Inhibition of papaya papain using methyl hippurate as substrate by titrimetric method.

Peptide text beside a SMILES is read from it. * marks the point of attachment. Cbz = O=C(OCc1ccccc1)* Some results are limits rather than exact numbers.

In the case of `CCOP(=O)(/C=C/C(NC(=O)[C@H](Cc1ccccc1)NC(=O)[C@H](Cc1ccccc1)NC(=O)OC(C)(C)C)c1ccccc1)OCC` (mixture of isomers), the IC50 at Papain [1] amounted to 83 µM.
As for `O=C(O)CNC(=O)[C@H](Cc1ccccc1)NC(=O)OCc1ccccc1` (Cbz-Phe-Gly-OH), the Ki at Papain [2] is 19600 µM; on Cathepsin B, 5610 µM.
At Cathepsin B, `C[C@H](NC(=O)OCc1ccccc1)C(=O)N[C@@H](Cc1ccccc1)C(=O)OCF` gave a Ki of 174000 µM.
On to `CC(C)[C@H](NC(=O)[C@H](CCCNC(=N)N)NC(=O)N[C@@H](Cc1ccccc1)C(=O)O)C(=O)N[C@H](C=O)CCCNC(=N)N` [ANTIPAIN], for which the inhibition constant (Ki) on Papain [2] is 265 µM.
Consider `CC[C@H](C)[C@H](NC(=O)[C@H](CCCNC(=N)N)NC(=O)OCc1ccccc1)C(=O)N[C@H](/C=N/NC(N)=O)Cc1ccccc1`, for which the Ki at Papain [2] was found to be 0.023 µM; at Cathepsin B, 0.5 µM.
On to `CCOP(=O)(/C=C/C(NC(=O)[C@H](CC(C)C)NC(=O)OC(C)(C)C)c1ccccc1)OCC` (mixture of isomers), for which, at Papain [1], the IC50 is greater than 200 µM.
As to `CCOP(=O)(/C=C/C(NC(=O)[C@H](Cc1ccccc1)NC(=O)[C@H](Cc1ccccc1)NC(=O)OCc1ccccc1)c1ccccc1)OCC` (mixture of isomers), the IC50 on Papain [1] is 125 µM.
With `CCOP(=O)(/C=C/C(NC(=O)[C@H](CC(C)C)NC(=O)[C@H](Cc1ccccc1)NC(=O)OC(C)(C)C)c1ccccc1)OCC` (mixture of isomers), the IC50 at Papain [1] was determined as 132 µM.
On the same count and under the same terms, under `CCOP(=O)(/C=C/C(NC(=O)[C@H](CC(C)C)NC(=O)OCc1ccccc1)c1ccccc1)OCC` (mixture of isomers) stands greater than 200 µM.
As for `COC(=O)N[C@@H](Cc1ccccc1)C(=O)NCC#N`, the Ki on Papain [3] is 6890 µM.
As to `CCOP(=O)(/C=C/C(NC(=O)[C@H](CC(C)C)NC(=O)OCC1c2ccccc2-c2ccccc21)c1ccccc1)OCC` (mixture of isomers), the IC50 at Papain [1] was greater than 200 µM.
In the case of `CCOP(=O)(/C=C/C(NC(=O)[C@H](Cc1c[nH]c2ccccc12)NC(=O)OCc1ccccc1)c1ccccc1)OCC` (mixture of isomers), the IC50 at Papain [1] was greater than 200 µM.
In the case of `COC(=O)CNC(=O)[C@H](Cc1ccccc1)NC(=O)OCc1ccccc1` (Cbz-Phe-Gly-OMe), the Ki was 2700 µM on Papain [2] and 13500 µM on Cathepsin B.
For `CCOP(=O)(/C=C/C(NC(=O)[C@H](Cc1ccccc1)NC(=O)OC(C)(C)C)c1ccccc1)OCC` (mixture of isomers), the IC50 at Papain [1] came to 40 µM.
Regarding `CCOP(=O)(/C=C/C(NC(=O)[C@H](Cc1ccc(O)cc1)NC(=O)OCc1ccccc1)c1ccccc1)OCC` (mixture of isomers), the IC50 on Papain [1] was 54 µM.
The same measure, in the same setting: under `CCOP(=O)(/C=C/C(NC(=O)[C@H](Cc1ccccc1)NC(=O)OCc1ccccc1)c1ccccc1)OCC` (mixture of isomers) stands 30 µM.

For orientation: IC50 means the concentration that inhibits the measured activity by half. The Ki is the dissociation constant of the complex between target and ligand, obtained from inhibition or displacement. Read a low Ki as tighter binding.
